Reference: US20250122479A1, “GENERATION OF LUNG ORGANOIDS FROM PLURIPOTENT STEM CELLS AND USE THEREOF” (THE TRUSTEES OF COLUMBIA UNIVERSITY IN THE CITY OF NEW YORK, priority 2022, published 2025)

Tests used:
Assay type in all cases: cell-based, human
TLOs [1] = test: CHIR withdrawal from TLOs cultured in CK-DCI; conditions: 1 to 5 days after withdrawal of CHIR; Ki67, cCASP3, AT2 marker RT-PCR
Experimental: As removing WNT signaling has been reported to induce AT2 maturation in alveolospheres,^26,27 we withdrew CHIR.
Matrigel embedded lung organoids can be used for TLO generation when they reach d42 of development. Media was removed from the transwell and 1 ml of 2 mg/ml dispase (Corning) was added to release lung organoid from the Matrigel for 30-45 minutes in normoxic incubator. The organoid was transferred to a 15 ml conical tube and washed with stop media (DMEM (Corning), 5% FBS (Atlanta Biologicals; Flowery Branch, Georgia), 1% Glutamax (ThermoFisher)) to neutralize Dispase, then centrifuged at […] for 5 minutes. The pellet was incubated with 1 ml of 0.05% Trypsin/EDTA in normoxic incubator for 10-12 minutes with occasional pipetting with a P1000 pipet tip. Single cell dissociation was verified using a bright field microscope. If a single cell suspension was not obtained after 12 minutes, cells were washed with stop media and incubated for additional 5 minutes with 0.05% Trypsin/EDTA. Cells were counted using a hemocytometer and 400 cells/μl of undiluted Matrigel were plated in a well of a 12-well non-tissue culture plate. […]

TLOs [2] = test: Distal differentiation of TLOs (removal of CHIR and KGF, TGF-b blockade with SB); conditions: removing CHIR and KGF and blocking TGF-b signaling using SB (DCI+SB)
Experimental: We next used empirical approaches to differentiate the cells into more mature proximal of distal lineages.
(§1) Total RNA was extracted according to manufacturer's instructions using the Direct-zol™ RNA Microprep (Zymo Research, Irvine, CA), and 500 ng of total RNA was reverse transcribed using the qScript™ XLT cDNA SuperMix (Quantabio, Beverly, MA). Technical triplicates of […] reaction (for use in Applied Biosystems QuantStudio7 384-well System, Waltham, MA) were prepared with 3 μl of diluted cDNA and run for 40 cycles. Relative gene expression was calculated based on the average cycle (Ct) value, normalized to GAPDH as the internal control and reported as fold change (2(−ddCT)).

ABCA3−/− TLOs = test: ER stress induction by tunicamycin, ABCA3-/- TLOs; conditions: one week after removal of tunicamycin; compared with HPS1−/− TLOs
Experimental: (§2) We challenged for 5 hours with tunicamycin, a protein glycosylation inhibitor that prevents protein maturation and causes ER stress.^65 and measured ER stress components after 5 hrs, upon removal tunicamycin, and after 1 week (FIG. 7b). […] Of particular interest is ATF4, as ATF4 is an effector protein implicated not only in the UPR^ER via PERK phosphorylation but also in the integrated stress response (ISR)^66.
as §1

HPS1−/− TLOs [3] = conditions: one week after removal of tunicamycin
Experimental: as §2

HPS1−/− TLOs [4] = test: ER stress induction by tunicamycin, HPS1-/- TLOs
Experimental: as §2, §1

WT (R2) TLO = test: ER stress induction by tunicamycin, WT TLOs; conditions: one week after removal of tunicamycin (5 hour challenge)
Experimental: as §2, §1

Cc1c[nH]c(-c2cnc(NCCNc3ccc(C#N)cn3)nc2-c2ccc(Cl)cc2Cl)n1 [CHIR, CHIR99021]
effect of CHIR withdrawal on TLOs (TLOs [1]): disintegration, proliferation arrest (FIG. 3b), apoptosis (FIG. 3c) and loss of AT2 markers

NC(=O)c1ccc(-c2nc(-c3ccc4c(c3)OCO4)c(-c3ccccn3)[nH]2)cc1 [SB, SB431542]
expression of AT2 and AT1 markers (TLOs [2]): further upregulation of not only AT2, but also of AT1 markers

tunicamycin
expression of ER stress mediators (ABCA3−/− TLOs): A similar response, though less pronounced | apoptosis (HPS1−/− TLOs [3]): increased apoptosis | expression of ER stress mediators (BIP, XBP1 splicing) (HPS1−/− TLOs [4]; after 5 hrs tunicamycin challenge): significantly increased expression of BIP and of XBP1 splicing | expression of ER stress mediators (XBP1 splicing, CHOP, ATF4) (HPS1−/− TLOs [4]; one week after removal of tunicamycin (5 hour challenge)): maintained elevated splicing of XBP1 but entirely failed to upregulate CHOP and ATF4 | expression of ER stress mediators (XBP1, BIP, CHOP, ATF4) (WT (R2) TLO): expression of BIP, CHOP and ATF4 were strikingly increased
